The target in assay [1] is T1, hDAGL-α (Homo sapiens, UniProt Q9Y4D2).
T1 sequence (Q9Y4D2 1-1042): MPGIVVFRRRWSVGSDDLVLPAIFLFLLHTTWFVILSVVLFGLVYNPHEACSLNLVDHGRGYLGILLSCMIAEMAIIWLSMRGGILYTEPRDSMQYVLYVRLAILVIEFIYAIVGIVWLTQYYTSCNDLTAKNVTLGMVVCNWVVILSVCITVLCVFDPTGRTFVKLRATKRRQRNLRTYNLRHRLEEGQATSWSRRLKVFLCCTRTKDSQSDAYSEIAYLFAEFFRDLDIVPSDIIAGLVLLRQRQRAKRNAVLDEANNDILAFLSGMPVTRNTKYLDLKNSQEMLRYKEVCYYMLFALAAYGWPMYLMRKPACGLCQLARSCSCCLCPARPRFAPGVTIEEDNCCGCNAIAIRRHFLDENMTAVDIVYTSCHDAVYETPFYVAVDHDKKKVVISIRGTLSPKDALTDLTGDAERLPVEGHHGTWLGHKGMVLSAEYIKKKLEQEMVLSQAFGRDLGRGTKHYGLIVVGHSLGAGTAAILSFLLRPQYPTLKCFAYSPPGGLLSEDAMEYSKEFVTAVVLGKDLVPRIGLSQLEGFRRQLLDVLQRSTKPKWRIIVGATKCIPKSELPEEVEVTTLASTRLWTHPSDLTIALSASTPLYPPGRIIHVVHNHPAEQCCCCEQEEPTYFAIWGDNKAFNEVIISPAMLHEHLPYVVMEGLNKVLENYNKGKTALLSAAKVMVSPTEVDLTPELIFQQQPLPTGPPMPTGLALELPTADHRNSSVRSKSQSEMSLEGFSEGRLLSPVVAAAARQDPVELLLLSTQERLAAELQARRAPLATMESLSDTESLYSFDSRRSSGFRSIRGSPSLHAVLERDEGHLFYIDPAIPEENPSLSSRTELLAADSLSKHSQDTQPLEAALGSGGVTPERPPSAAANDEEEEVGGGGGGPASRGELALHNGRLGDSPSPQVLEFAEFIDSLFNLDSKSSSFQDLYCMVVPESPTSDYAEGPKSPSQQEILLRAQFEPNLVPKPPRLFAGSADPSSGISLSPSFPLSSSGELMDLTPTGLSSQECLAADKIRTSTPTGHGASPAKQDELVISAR
Description: DAGL-α natural substrate assay (SAG hydrolysis, glycerol based real-time fluorescence assay). The assay is classed as biochemical. On the set-up: expressed in transfected cells; host or cells: HEK293T (transient), membrane preparation. The conditions noted are these: for pIC50: n=4. The text has this:
To confirm that compound 25 was also able to block conversion of the natural substrate 1-stearoyl-2-arachidonoyl-sn-glycerol of DAGL-α to the endocannabinoid 2-AG, the inventors employed a real-time, fluorescence-based assay. The DAGL-α natural substrate assay is based on the production of 2-AG from 1-stearoyl-2-arachidonoyl-sn-glycerol (SAG) hydrolysis by DAGL-α-overexpressing membrane preparations from transiently transfected HEK293T cells. The 2-AG production is coupled to the oxidation of commercially available Amplifu™Red via a multi-enzyme cascade, resulting in a fluorescent signal from the dye resorufin.
Standard assays were performed in HEMNB buffer (50 mM HEPES pH 7.4, 1 mM EDTA, 5 mM MgCl2, 100 mM NaCl, 0.5% (w/v) BSA) in black, flat clear-bottom 96-wells plates (Greiner). Final protein concentration of membrane preparations from DAGL-α-overexpressing HEK293T cells was 50 µg/mL (10 µg per well). Inhibitors were added from 40x concentrated DMSO stocks. A substrate solution of 1-stearoyl-2-arachidonoyl-sn-glycerol was prepared just prior to use. The SAG stock solution (10 mg/mL in methyl acetate) was dried under argon and subsequently dissolved in 50 mM HEPES buffer (pH 7.0) containing 0.75% (w/v) Triton X-100. The substrate solution was mixed to form an emulsion and stored on ice until use.
DAGL-α-overexpressing membranes were incubated with inhibitor for 20 min. Subsequently, assay mix containing glycerol kinase (GK), glycerol-3-phosphate oxidase (GPO), horseradish peroxidase (HRP), adenosine triphosphate (ATP), monoacylglycerol lipase (MAGL), Amplifu™Red and 1-stearoyl-2-arachidonoyl-sn-glycerol (SAG) was added and fluorescence was measured in 5 min intervals for 60 min on a GENios microplate reader (Tecan, Giessen, The Netherlands).
Standard assay concentrations: 0.2 U/mL GK, GPO and HRP, 0.125 mM ATP, 5 µg/mL MAGL-overexpressing membranes, 10 µM Amplifu™Red, 100 or 150 µM SAG, 5% DMSO, 0.0075% (w/v) Triton X-100 in a total volume of 200 µL.

For assay [2], the target named is T1, hDAGL-α. Put plainly: Biochemical hDAGL-α activity assay (PNP-butyrate hydrolysis, 96 well plate). Further details: expressed in transfected cells; host or cells: HEK293T (transient), membrane fraction. To be noted: PNP-butyrate 0.3 mM, membranes of HEK293T cells transfected with hDAGL-α. On the procedure:
The biochemical hDAGL-α activity assay is based on the hydrolysis of para-nitrophenylbutyrate (PNP-butyrate) by membrane preparations from HEK293T cells transiently transfected with hDAGL-α. 200 µL reactions were performed in flat bottom Greiner 96-wells plates in a 50 mM pH 7.2 Hepes buffer. Membrane protein fractions from HEK293T cells transiently transfected with hDAGL-α (0.05 µg/µL final concentration) were used as hDAGL-α source. Compounds to be tested were introduced in 5 µL DMSO. The mixtures were incubated for 30 minutes before 5.0 µL 12 mM PNP-butyrate (final concentration 0.3 mM) in DMSO was added (final DMSO concentration 5.0%). Kinetics were followed immediately after addition of PNP-butyrate on a plate reader (TECAN GENios® microplate reader), by measuring the OD420 every 60 seconds, for 20 minutes at 37°C. The slope of the linear region from 5-15 minutes was determined, and all experiments were performed at N = 2, n = 2 for experimental measurements and N = 2, n = 4 for controls.
Data analysis: Z'-factor of each plate was determined for the validation of each experiment, using the following formula Z' = 1-3(σpc + σnc)/(µpc - µnc). The slope from 5-15 minutes of the positive control (pc: hDAGL-α, DMSO), and the negative control (nc: Mock, DMSO) was used. Plates were accepted for further analysis when Z' > 0.6. Kinetic measurements were corrected for the average absorption of the negative control (mock, DMSO). The slope of the linear region from 5-15 minutes was determined. The average, standard deviation (SD) and standard error of mean (SEM) were calculated and normalized to the corrected positive control. Data was exported to Graphpad Prism 5.0 for the calculation of the pIC50 using a nonlinear dose-response analysis.

Setting [3] is: natural substrate 1-stearoyl-2-arachidonoyl-sn-glycerol.

Regarding `O=C(CCCCCc1ccccc1)c1nc2ncccc2o1` [Compound 1, 1-(Oxazolo[4,5-b]pyridin-2-yl)-6-phenylhexan-1-one, reference compound], the pIC50 (usually the IC50 on a negative log10 scale, so that one unit is a factor of ten) at hDAGL-α [1] (setting [3]) is on record as 6.3 ± 0.1. Further, the “DAGL-α Activity assay pIC50” value on hDAGL-α [2] came out at 7.43.

For the compound `Cc1ccc(-c2cnc3nc(C(=O)CCCCCc4ccccc4)oc3c2)cc1` [Compound 25, 1-(6-(p-Tolyl)oxazolo[4,5-b]pyridin-2-yl)-6-phenylhexan-1-one], the pIC50 against hDAGL-α [1] (glycerol based natural substrate assay, figure legend prints nM, unit of the source corrected) stood at 7.9 ± 0.08; at hDAGL-α [1] (setting [3]), 7.9 ± 0.08. Besides, the “fold increase compared to compound 1” value at hDAGL-α [1] (natural substrate assay) came to 40 fold. Besides, the IC50 at hDAGL-α [2] (read-out: DAGL-α Activity assay pIC50 (converted)) was 3.02 nM.

The values are drawn from patent publication EP3095787A1, “[…] ACTIVE COMPOUNDS AS DAG-LIPASE INHIBITORS” (Universiteit Leiden, priority 2015, dated 2016).
